Patent US7767664B2, “Plant growth regulation” (Bayer CropScience AG, priority 2004, dated 2010)

How the values were obtained:
[1] = tested on: maize (Zea mays, variety “LORENZO”); assay: Root growth assay, maize seed treatment; type: in vivo; conditions: Root Growth of 100 is set as the standard, wet root weight 16 days post treatment
Description: Plant roots are a highly proliferative tissue that allows an easy accessible, cheap and short term screening method for plant growth regulators. […] By using this root assay one is enabled to determine the effect of a seed treatment to root growth and/or germination and/or changes in habitat of germinated plants in order to identify the possible use as a yield enhancer. Two seeds of wheat (Triticum aestivum, variety “TRISO”) or 1 seed of maize (Zea mays, variety “LORENZO”) per hole in a plastic tray which contains an architecture of 8×13 holes were placed on compost soil covered with sand. […] Six replicates in a row of each compound and concentration were done. The outer rim of the above defined plastic tray was untreated to avoid false negative effects and the middle row (No. 7) was used as untreated control. The treated seeds were allowed to dry for approx. 4 hours and subsequently covered with sand and watered. The trays were stored in climate chambers with 14 hours lighting at a temperature of 24° C. (±2) at daytime and 16° C. (±2) at night and relative humidity (rH) of 60% and daily watered. Assessments were done 16 (±2) days post treatment by counting the germinated plants and assessing the phytotoxicity symptoms and percentage. In addition, the roots were washed out and the shoots were cut directly above the seed and the wet roots were placed on dry paper towels for approximately 30 minutes and weighted afterwards. This procedure provides a similar grade of moisture to the roots so that a comparison of the weights is possible.

[2] = tested on: wheat (Triticum aestivum, variety “TRISO”); assay: Root growth assay, wheat seed treatment; type: in vivo; conditions: Root Growth of 100 is set as the standard, wet root weight 16 days post treatment
Description: Plant roots are a highly proliferative tissue that allows an easy accessible, cheap and short term screening method for plant growth regulators. The results obtained can easily be transferred to the overall effects on a plant of plant growth regulators identified by such a system. By using this root assay one is enabled to determine the effect of a seed treatment to root growth and/or germination and/or changes in habitat of germinated plants in order to identify the possible use as a yield enhancer. Two seeds of wheat (Triticum aestivum, variety “TRISO”) or 1 seed of maize (Zea mays, variety “LORENZO”) per hole in a plastic tray which contains an architecture of 8×13 holes were placed on compost soil covered with sand. These seeds were treated with 100 μl/hole, which creates an application volume of approx. 1200 l/ha, of a compound solution at active ingredient rates equivalent to 100, 10 and 1 g a.i./ha of each compound using an robotic application system (Lizzy Spray Robotics). Six replicates in a row of each compound and concentration were done. The outer rim of the above defined plastic tray was untreated to avoid false negative effects and the middle row (No. 7) was used as untreated control. The treated seeds were allowed to dry for approx. 4 hours and subsequently covered with sand and watered. The trays were stored in climate chambers with 14 hours lighting at a temperature of 24° C. (±2) at daytime and 16° C. (±2) at night and relative humidity (rH) of 60% and daily watered. Assessments were done 16 (±2) days post treatment by counting the germinated plants and assessing the phytotoxicity symptoms and percentage. In addition, the roots were washed out and the shoots were cut directly above the seed and the wet roots were placed on dry paper towels for approximately 30 minutes and weighted afterwards. This procedure provides a similar grade of moisture to the roots so that a comparison of the weights is possible.
The effects observed concerning Root Growth given in column 2 (Root Growth of “100” is set as the standard) are directed to concentrations that are equivalent to 100, 10, 1 g a.i./ha, each.

| SMILES | Root Growth ([1]; 1 g a.i./ha) | Root Growth ([1]; 10 g a.i./ha) | Root Growth ([1]; 100 g a.i./ha) | Root Growth ([2]; 1 g a.i./ha) | Root Growth ([2]; 10 g a.i./ha) | Root Growth ([2]; 100 g a.i./ha) |
| --- | --- | --- | --- | --- | --- | --- |
| O=C1CCC(=O)c2ccccc2N1 [Compound 3.1] | 86 | 150 | 86 | 98 | 125 | 135 |
| O=C1CCC(=NNc2cc(Cl)cc(Cl)c2)c2cc(Br)ccc2N1 [Compound 4.1] | 131 | 102 | 136 |  |  |  |
| O=C1CCC(=O)c2cc(Cl)ccc2N1 [Compound 3.4] | 85 | 121 | 144 | 125 | 126 | 195 |
| CCNC(=S)NN=C1CCC(=O)Nc2cc(OC)c(OC)cc21 [Compound 4.5] |  |  |  | 149 | 106 | 79 |
| COc1cc2c(cc1OC)C(=O)CCC(=O)N2 [Compound 3.2, 7,8-Dimethoxy-1H-benzazepine-2,5 (3H, 4H)-dione] | 96 | 89 | 123 | 133 | 131 | 98 |
